Source: patent EP4786451A1, “COMPOUND TARGETING INTEGRIN AND USE THEREOF IN RNAI AGENT” (YUN HO BIO CO., LTD, priority 2023, dated 2025)
Several values for one entry are separate records, joined by “and”; a condition that tells them apart may be missing. Equal values may be shown once. Read-outs that look alike come from different tables or passages of the source.

Tests used:
Integrin αvβ6 Receptor [1] = molecular target: T1, Integrin αvβ6 Receptor (Homo sapiens, UniProt P06756+P18564); assay: HTRF binding activity to integrin αvβ6 receptor (competition with LAP (TGF-beta 1)); settings: for Hillslope: fit parameter of the inhibition curve; for Emax: maximum of the inhibition curve, read-out: Max; for IC50: table of 5FAM-labelled compounds
Method: Reagent Preparation: Assay buffer was prepared.

Integrin αvβ1 Receptor = Integrin αvβ1 Receptor (Homo sapiens, UniProt P05556+P06756); assay: Fluorescence polarization (FP) binding activity to integrin αvβ1 receptor (competition with Cyclo[-RGDy-K(5-FAM)]); settings: Table 4, different integrin receptors
Integrin αvβ5 Receptor = Integrin αvβ5 Receptor (Homo sapiens, UniProt P06756+P18084); assay: HTRF binding activity to integrin αvβ5 receptor (competition with Vitronectin)
Method: B. Evaluation of Compound Binding Activity to Integrin αvβ5 Receptor using Homogeneous Time-Resolved Fluorescence (HTRF) Technology
Compound Preparation: Same as A.
Then 5 µL of integrin receptor protein αvβ5 was added (5 µL of assay buffer was added for negative control), incubated at room temperature for 20 minutes. Next, 5 µL of ligand protein VTN, and 10 µL of the SA-Tb and Anti-His XL665 mixture were added respectively, incubated at room temperature for 1 hour.

Integrin αvβ6 Receptor [2] = molecular target: T1, Integrin αvβ6 Receptor; assay: HTRF binding activity to integrin αvβ6 receptor (competition with LAP (TGF-beta 1))
Method: Main Experimental Reagents and Consumables
Inhibition rate and fit IC50 was calculated using Excel and XL-Fit respectively, formula as follows: Inhibition % = (Max−Signal)/(Max−Min)*100 [formula] Y = Bottom + (Top−Bottom)/(1+(IC50/X)[…]), [formula] Y and X represent %inhibition and compound concentration respectively

[3] = Integrin αvβ6, HTRF, Table 3, several runs, each with Cilengitide and 1 as references, read-out: IC50
[4] = Table 4, different integrin receptors, read-out: IC50 (nM) αvβ6

T1 sequence (P06756 31-992 limits assumed): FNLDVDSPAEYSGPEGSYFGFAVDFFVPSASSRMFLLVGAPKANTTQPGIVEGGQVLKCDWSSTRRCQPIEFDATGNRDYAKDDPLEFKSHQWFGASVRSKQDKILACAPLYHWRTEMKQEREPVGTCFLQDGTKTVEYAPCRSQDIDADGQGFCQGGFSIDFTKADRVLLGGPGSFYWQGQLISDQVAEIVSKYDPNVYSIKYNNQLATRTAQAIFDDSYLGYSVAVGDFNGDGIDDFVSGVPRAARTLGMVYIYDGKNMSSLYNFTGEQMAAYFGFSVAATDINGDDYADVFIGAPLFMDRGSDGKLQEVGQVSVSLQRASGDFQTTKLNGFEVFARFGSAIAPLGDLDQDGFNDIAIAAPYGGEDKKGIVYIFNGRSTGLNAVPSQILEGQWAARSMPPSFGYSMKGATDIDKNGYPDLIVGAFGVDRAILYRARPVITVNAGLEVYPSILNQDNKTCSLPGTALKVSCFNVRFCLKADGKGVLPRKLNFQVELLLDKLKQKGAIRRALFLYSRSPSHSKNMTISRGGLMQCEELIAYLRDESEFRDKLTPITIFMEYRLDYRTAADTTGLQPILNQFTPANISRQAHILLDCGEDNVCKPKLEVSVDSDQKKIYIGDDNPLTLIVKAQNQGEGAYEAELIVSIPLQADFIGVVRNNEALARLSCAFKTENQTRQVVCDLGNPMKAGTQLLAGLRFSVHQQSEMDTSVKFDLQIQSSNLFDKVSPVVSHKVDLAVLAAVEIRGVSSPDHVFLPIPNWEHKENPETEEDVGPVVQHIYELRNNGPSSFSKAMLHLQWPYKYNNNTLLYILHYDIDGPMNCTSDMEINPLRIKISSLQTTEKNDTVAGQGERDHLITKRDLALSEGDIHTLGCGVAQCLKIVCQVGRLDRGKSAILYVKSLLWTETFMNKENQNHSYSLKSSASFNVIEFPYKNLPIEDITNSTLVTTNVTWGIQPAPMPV
T1 sequence (P18564 22-707 limits assumed): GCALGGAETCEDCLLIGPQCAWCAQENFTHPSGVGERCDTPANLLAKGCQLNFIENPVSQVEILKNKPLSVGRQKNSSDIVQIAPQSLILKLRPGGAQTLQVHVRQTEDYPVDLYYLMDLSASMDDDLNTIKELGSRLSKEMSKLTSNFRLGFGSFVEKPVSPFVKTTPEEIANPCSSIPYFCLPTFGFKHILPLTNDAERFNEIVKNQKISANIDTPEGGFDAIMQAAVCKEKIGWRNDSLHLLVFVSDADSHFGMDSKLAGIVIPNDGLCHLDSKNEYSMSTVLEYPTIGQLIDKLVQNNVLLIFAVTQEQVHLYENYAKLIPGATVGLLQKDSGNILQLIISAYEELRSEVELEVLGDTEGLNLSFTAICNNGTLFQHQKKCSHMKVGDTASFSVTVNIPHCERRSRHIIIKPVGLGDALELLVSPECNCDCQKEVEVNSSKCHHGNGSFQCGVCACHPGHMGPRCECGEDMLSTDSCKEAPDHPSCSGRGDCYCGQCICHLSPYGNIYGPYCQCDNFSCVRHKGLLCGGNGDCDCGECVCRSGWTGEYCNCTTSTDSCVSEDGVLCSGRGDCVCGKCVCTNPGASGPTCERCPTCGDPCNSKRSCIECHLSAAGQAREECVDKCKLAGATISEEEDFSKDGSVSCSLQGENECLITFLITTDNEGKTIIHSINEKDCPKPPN
Sequence of Integrin αvβ1 Receptor (P06756 31-992 limits assumed): as the sequence (P06756 31-992 limits assumed) above
Sequence of Integrin αvβ1 Receptor (P05556 21-728 limits assumed): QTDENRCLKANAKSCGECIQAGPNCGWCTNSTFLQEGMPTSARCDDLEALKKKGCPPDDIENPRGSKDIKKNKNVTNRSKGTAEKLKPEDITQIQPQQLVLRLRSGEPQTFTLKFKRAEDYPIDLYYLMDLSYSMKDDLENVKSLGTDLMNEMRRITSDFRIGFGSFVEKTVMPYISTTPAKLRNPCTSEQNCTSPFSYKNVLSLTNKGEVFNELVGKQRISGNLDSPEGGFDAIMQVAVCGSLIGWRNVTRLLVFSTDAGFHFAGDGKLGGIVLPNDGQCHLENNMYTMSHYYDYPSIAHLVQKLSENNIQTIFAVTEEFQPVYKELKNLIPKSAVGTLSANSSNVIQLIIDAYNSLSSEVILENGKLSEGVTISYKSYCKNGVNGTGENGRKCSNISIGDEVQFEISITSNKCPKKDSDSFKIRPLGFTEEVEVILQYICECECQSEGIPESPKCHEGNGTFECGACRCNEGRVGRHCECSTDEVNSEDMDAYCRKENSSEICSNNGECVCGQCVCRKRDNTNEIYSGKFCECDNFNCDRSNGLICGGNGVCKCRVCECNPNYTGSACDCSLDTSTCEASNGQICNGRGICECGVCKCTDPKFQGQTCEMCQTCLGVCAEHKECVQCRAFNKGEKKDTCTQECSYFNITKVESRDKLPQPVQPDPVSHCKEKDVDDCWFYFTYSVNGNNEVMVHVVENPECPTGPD
Sequence of Integrin αvβ5 Receptor (P06756 31-992 limits assumed): as the sequence (P06756 31-992 limits assumed) above
Sequence of Integrin αvβ5 Receptor (P18084 24-719 limits assumed): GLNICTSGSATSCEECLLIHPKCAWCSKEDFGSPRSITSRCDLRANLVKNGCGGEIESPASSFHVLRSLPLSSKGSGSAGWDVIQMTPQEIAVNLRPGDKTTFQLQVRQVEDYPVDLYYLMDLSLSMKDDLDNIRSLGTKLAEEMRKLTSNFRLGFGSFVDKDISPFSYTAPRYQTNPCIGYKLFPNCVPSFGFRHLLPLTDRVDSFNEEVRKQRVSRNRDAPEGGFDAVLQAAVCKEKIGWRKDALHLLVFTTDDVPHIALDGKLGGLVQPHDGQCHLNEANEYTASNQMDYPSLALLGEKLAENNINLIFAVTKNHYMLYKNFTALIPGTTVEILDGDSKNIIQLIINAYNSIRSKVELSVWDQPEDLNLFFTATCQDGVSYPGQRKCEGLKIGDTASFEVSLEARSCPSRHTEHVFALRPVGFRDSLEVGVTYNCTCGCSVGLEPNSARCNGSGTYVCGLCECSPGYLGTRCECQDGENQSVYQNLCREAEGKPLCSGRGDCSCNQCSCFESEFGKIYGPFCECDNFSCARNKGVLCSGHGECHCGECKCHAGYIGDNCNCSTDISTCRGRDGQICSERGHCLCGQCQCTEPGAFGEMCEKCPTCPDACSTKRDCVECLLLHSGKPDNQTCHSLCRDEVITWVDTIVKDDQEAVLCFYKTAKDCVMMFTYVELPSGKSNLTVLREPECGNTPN

| SMILES | Hillslope (Integrin αvβ6 Receptor [1]) | Emax (Integrin αvβ6 Receptor [1]) [%] | IC50 (Integrin αvβ6 Receptor [2]; [3]) | other results |
| --- | --- | --- | --- | --- |
| CNc1cccc(CC(=O)NCC(=O)N[C@@H](CC(=O)O)c2ccc(-c3ccc(OCCOCCOCCOCCOCCn4cc(CNC(=O)c5ccc6c(c5)C(=O)OC65c6ccc(O)cc6Oc6cc(O)ccc65)nn4)c4ccccc34)cc2)n1 [Compound 6-5FAM] | 1.2 | 95.8 | – | IC50 (Integrin αvβ6 Receptor [1]): 1.6 nM |
| Cc1ccnc(NCCCC(=O)NCC(=O)N[C@@H](CC(=O)O)c2ccc(-c3ccc(OCCOCCOCCOCCOCCN=[N+]=[N-])c4ccccc34)cc2)c1 [Compound 1, reference compound] | – | – | 2.5 nM and 2.3 nM | IC50 (Integrin αvβ1 Receptor): 9.7 nM; IC50 (Integrin αvβ5 Receptor; IC50 (nM) αvβ5, Table 4, different integrin receptors): 3.4 nM; IC50 (Integrin αvβ6 Receptor [2]; [4]): 2.5 nM |
| [N-]=[N+]=NCCOCCOCCOCCOCCOc1cccc2c(-c3ccc(C(CC(=O)O)CN4CCC(CCc5ccc6c(n5)NCCC6)C4)cc3)cccc12 (stereo not drawn) [Compound 71] | – | – | 3 nM | – |
| Cc1nn(-c2cccc(C(CC(=O)O)CN3CC[C@@H](CCc4ccc5c(n4)NCCC5)C3)c2)c(C)c1OCCOCCOCCOCCOCCN=[N+]=[N-] (single isomer, unassigned) [Compound 14-P1] | – | – | 9.4 nM | – |
| Cc1nc(C)n(CCOCCOCCOCCOCCN=[N+]=[N-])c1-c1cccc(C(CC(=O)O)CN2CC[C@@H](CCc3ccc4c(n3)NCCC4)C2)c1 (stereo partly drawn) [Compound 15] | – | – | 2.5 nM | – |
| [N-]=[N+]=NCCOCCOCCOCCOCCOc1ccc(C(CC(=O)O)CN2CCC(CCc3ccc4c(n3)NCCC4)C2)cc1F (stereo not drawn) [Compound 83] | – | – | 3.7 nM | – |
| [N-]=[N+]=NCCOCCOCCOCCOCCOc1ccc(-c2ccc(C(CC(=O)O)CN3CCC(CCc4ccc5c(n4)NCCC5)C3)cc2)c2ccccc12 (stereo not drawn) [Compound 49] | – | – | 3.1 nM | – |
| CC(C)[C@H]1C(=O)N[C@@H](CCCNC(=N)N)C(=O)NCC(=O)N[C@@H](CC(=O)O)C(=O)N[C@H](Cc2ccccc2)C(=O)N1C [Cilengitide, reference compound] | 1.2 | 98.2 | – | – |
| [N-]=[N+]=NCCOCCOCCOCCOCCOc1ccc(-c2ccc([C@H](CC(=O)O)NC(=O)CCCCc3ccc4c(n3)NCCC4)cc2)c2ccccc12 [Compound 8] | – | – | – | Hillslope (Integrin αvβ6 Receptor [2]; Integrin αvβ6, HTRF, fit parameter of the inhibition curve): 2.5; Max (Integrin αvβ6 Receptor [2]; Integrin αvβ6, HTRF, maximum of the inhibition curve): 107.0; Min (Integrin αvβ6 Receptor [2]; Integrin αvβ6, HTRF, minimum of the inhibition curve): -2.0; IC50 (Integrin αvβ6 Receptor [2]; Integrin αvβ6, HTRF, table of 5FAM-labelled compounds, read-out: IC50): 1.37 nM |
| [N-]=[N+]=NCCOCCOCCOCCOCCOc1ccc(-c2ccc(C(CC(=O)O)CN3CCC(CCc4ccc5c(n4)NCCC5)C3)cc2)cc1 (stereo not drawn) [Compound 84] | – | – | 3.8 nM | – |
| Cc1ccnc(NCCC2CCN(CC(=O)N[C@@H](CC(=O)O)c3ccc(-c4ccc(OCCOCCOCCOCCOCCn5cc(CNC(=O)c6ccc7c(c6)C(=O)OC76c7ccc(O)cc7Oc7cc(O)ccc76)nn5)c5ccccc45)cc3)C2=O)c1 (stereo partly drawn) [Compound 5-5FAM] | 1.3 | 107 | – | – |
| [N-]=[N+]=NCCOCCOCCOCCOCCOc1ccc(F)c(C(CC(=O)O)CN2CCC(CCc3ccc4c(n3)NCCC4)C2)c1 (stereo not drawn) [Compound 53] | – | – | 3.8 nM | – |
| CNc1cccc(CCCCC(=O)N[C@@H](CC(=O)O)c2ccc(-c3ccc(OCCOCCOCCOCCOCCn4cc(CNC(=O)c5ccc6c(c5)C(=O)OC65c6ccc(O)cc6Oc6cc(O)ccc65)nn4)c4ccccc34)cc2)n1 [Compound 7-5FAM] | 1.2 | 102 | – | IC50 (Integrin αvβ6 Receptor [1]): 3.17 nM |
| COCCN(CCCCc1ccc2c(n1)NCCC2)CC[C@H](Nc1ncnc2cc(OCCOCCOCCOCCOCCn3cc(CNC(=O)c4ccc5c(c4)C(=O)OC54c5ccc(O)cc5Oc5cc(O)ccc54)nn3)ccc12)C(=O)O [Compound 17-5FAM] | 1.5 | 98.9 | – | IC50 (Integrin αvβ6 Receptor [1]): 7.99 nM |
| [N-]=[N+]=NCCOCCOCCOCCOCCOc1ccc(C(CC(=O)O)CN2CCC(CCc3ccc4c(n3)NCCC4)C2)cc1 (stereo not drawn) [Compound 20-P2] | – | – | 13.4 nM | – |
| Cc1nn(-c2cccc(C(CC(=O)O)CN3CC[C@@H](CCc4ccc5c(n4)NCCC5)C3)c2)c(C)c1OCCOCCOCCOCCOCCN=[N+]=[N-] (single isomer, unassigned) [Compound 14-P2] | – | – | 3.5 nM | IC50 (Integrin αvβ1 Receptor): 10.3 nM; IC50 (Integrin αvβ5 Receptor; read-out: IC50 (nM) αvβ5, Table 4, different integrin receptors): 0.7 nM; IC50 (Integrin αvβ6 Receptor [2]; [4]): 3.9 nM |
